Source: US12544370B2, “Methods for cancer therapy” (ASCENTAGE PHARMA (SUZHOU) CO., LTD., priority 2018, dated 2026)

How the values were obtained:
[1] = system: TKI-resistant patients with chronic phase (CP) or accelerated phase (AP) CML; assay: Phase I study in TKI-resistant CML, efficacy (Example 1); assay type: in vivo, human; conditions: for CHR achieved: 2 mg to 60 mg, within 3 cycles; for CCyR achieved / MCyR achieved: evaluable ≥3 cycles; for MCyR achieved: 12 mg to 50 mg
Source text: The eligible patients received treatments until disease progression or intolerable toxicities. The primary efficacy endpoint in the CML AP and CP patients, was complete hematological response (CHR) and major cytogenetic response (MCyR) respectively, MCyR includes partial cytogenetic response (PCyR) and complete cytogenetic response (CCyR). Blood samples were collected at various time points on Day 1-2 and Day 27-28 during cycle 1 for PK analyses.

[2] = system: murine Ba/F3 cells expressing BCR-ABL^WT; assay: Subcutaneous tumors, isogenic Ba/F3 BCR-ABL WT model; assay type: in vivo
[3] = system: tyrosine phosphorylation of CRKL in peripheral blood mononuclear cell (PBMCs); assay: Phase I study, pharmacodynamics: CRKL phosphorylation in PBMCs (Example 1); assay type: in vivo, human; conditions: doses 12 mg-60 mg, schedule and dose-dependent
[4] = system: Ba/F3 cells having BCR-ABL^T315I
[5] = Phase 1 trial, pharmacokinetics (Example 2); conditions: for half-life / Tmax: human, in vivo; for Tmax: median Tmax
Source text: The eligible patients received continuous treatment until disease progression or unacceptable toxicity, consent withdrawal, or death. The primary efficacy endpoints were major cytogenetic response (MCyR) for CP and complete hematological response (CHR) for AP. MCyR includes partial cytogenetic response (PCyR) and complete cytogenetic response (CCyR). Blood samples were collected at various time points on Day 1-2 and Day 27-28 during cycle 1 for PK analyses.

[6] = Example 1, Table 2, T315I mutation
[7] = Example 1, Table 2, Without T315I mutation
[8] = FIG. 2A, CML-CP, 24 patients T315I−
[9] = FIG. 2A, CML-CP, 42 patients T315I+
[10] = FIG. 2A, CML-CP, total 66 patients
[11] = FIG. 3A, 30 mg, CML-CP, 7 patients T315I+
[12] = FIG. 3A, 30 mg, CML-CP, 7 patients T315I−
[13] = FIG. 3A, 30 mg, CML-CP, total 14 patients
[14] = FIG. 3B, 40 mg, CML-CP, 8 patients T315I−
[15] = FIG. 3B, 40 mg, CML-CP, 10 patients T315I+
[16] = FIG. 3B, 40 mg, CML-CP, total 18 patients
[17] = FIG. 3C, 50 mg, CML-CP, 4 patients T315I−
[18] = FIG. 3C, 50 mg, CML-CP, 8 patients T315I+
[19] = FIG. 3C, 50 mg, CML-CP, total 12 patients

Q: With `Cc1ccc(C(=O)Nc2ccc(CN3CCN(C)CC3)c(C(F)(F)F)c2)cc1C#Cc1cnc2[nH]ncc2c1` [compound of formula (I-A), 3-(2-(1H-pyrazolo[3,4-b]pyridin-5-yl)ethynyl)-4-methyl-N-(4-((4-methylpiperazin-1-yl)methyl)-3-(trifluoromethyl)phenyl)-benzamide] as the molecule, how does the “activity by T315I mutation status at baseline” value ([1]; Example 1, Table 2) read?
A: Its value is “highly active in patients with or without T315I mutation at baseline”.

Q: What about the “Complete cytogenetic response, responders/evaluable” value ([1]; Example 1, Table 2, All) of the same molecule?
A: The value was 14/47.

Q: What about the “Complete hematological response, responders/evaluable” value ([1]; Example 1, Table 2, All) of the same molecule?
A: Its value is 65/70.

Q: And the “Major cytogenetic response, responders/evaluable” value ([1]; Example 1, Table 2, All)?
A: Its value is 24/47.

Q: What about the “Major molecular response, percent” value ([1]; Example 1, Table 2, All) of the same molecule?
A: The value was “(13%)”.

Q: And the “Major molecular response, responders/evaluable” value ([1]; Example 1, Table 2, All)?
A: Its value is 6/48.

Q: And the “Complete cytogenetic response, percent” value [1, 6]?
A: Its value is “(45%)”.

Q: What about the “Complete cytogenetic response, responders/evaluable” value [1, 6] of the same molecule?
A: Its value is 13/29.

Q: What about the “Complete hematological response, percent” value [1, 6] of the same molecule?
A: Its value is “(89%)”.

Q: What about the “Complete hematological response, responders/evaluable” value [1, 6] of the same molecule?
A: Its value is 40/45.

Q: And the “Major cytogenetic response, percent” value [1, 6]?
A: Its value is “(59%)”.

Q: And the “Major cytogenetic response, responders/evaluable” value [1, 6]?
A: The value was 17/29.

Q: And the “Major molecular response, percent” value [1, 6]?
A: The value was “(20%)”.

Q: What about the “Major molecular response, responders/evaluable” value [1, 6] of the same molecule?
A: The value was 6/30.

Q: And the “Complete cytogenetic response, percent” value [1, 7]?
A: The value was “(6%)”.

Q: What about the “Complete cytogenetic response, responders/evaluable” value [1, 7] of the same molecule?
A: The value was 1/18.

Q: What about the “Complete hematological response, percent” value [1, 7] of the same molecule?
A: Its value is “(100%)”.

Q: What about the “Complete hematological response, responders/evaluable” value [1, 7] of the same molecule?
A: The value was 25/25.

Q: And the “Major cytogenetic response, percent” value [1, 7]?
A: Its value is “(39%)”.

Q: And the “Major cytogenetic response, responders/evaluable” value [1, 7]?
A: Its value is 7/18.

Q: And the “Major molecular response, responders/evaluable” value [1, 7]?
A: The value was 0/18.

Q: And the CHR achieved ([1]; Example 1, AP patients)?
A: Its CHR achieved is 7 (58%) n (%).

Q: And the CCyR achieved ([1]; Example 1, AP patients)?
A: Its CCyR achieved is 2 (25%) n (%).

Q: And the MCyR achieved ([1]; Example 1, AP patients)?
A: The MCyR achieved was 3 (38%) n (%).

Q: And the MMR achieved ([1]; Example 1, CP patients)?
A: Its MMR achieved is 6 (15%) n (%).

Q: What about the CHR achieved ([1]; Example 1, CP patients) of the same molecule?
A: Its CHR achieved is 58 (100%) n (%).

Q: And the CCyR achieved ([1]; Example 1, CP patients)?
A: The CCyR achieved was 12 (31%) n (%).

Q: What about the MCyR achieved ([1]; Example 1, CP patients) of the same molecule?
A: Its MCyR achieved is 21 (54%) n (%).

Q: And the “patients who achieved MCyR or MMR at the end of cycle” value ([1]; Example 1, cycle number not given)?
A: The value was “More than 65%”.

Q: What about the CHR ([1]; FIG. 1A, CML-CP, 32 patients T315I−) of the same molecule?
A: Its CHR is 100%.

Q: And the CHR ([1]; FIG. 1A, CML-CP, 50 patients T315I+)?
A: Its CHR is 96%.

Q: What about the CHR ([1]; FIG. 1A, CML-CP, total 82 patients) of the same molecule?
A: Its CHR is 98%.

Q: And the CHR ([1]; FIG. 1B, CML-AP, 3 patients T315I−)?
A: Its CHR is 100%.

Q: And the CHR ([1]; FIG. 1B, CML-AP, 11 patients T315I+)?
A: The CHR was 82%.

Q: What about the CHR ([1]; FIG. 1B, CML-AP, total 14 patients) of the same molecule?
A: Its CHR is 86%.

Q: What about the CCyR [1, 8] of the same molecule?
A: Its CCyR is 17%.

Q: What about the MCyR [1, 8] of the same molecule?
A: Its MCyR is 46%.

Q: What about the PCyR [1, 8] of the same molecule?
A: Its PCyR is 29%.

Q: And the CCyR [1, 9]?
A: The CCyR was 74%.

Q: And the MCyR [1, 9]?
A: Its MCyR is 78%.

Q: And the PCyR [1, 9]?
A: Its PCyR is 4%.

Q: And the CCyR [1, 10]?
A: The CCyR was 53%.

Q: What about the MCyR [1, 10] of the same molecule?
A: The MCyR was 67%.

Q: What about the PCyR [1, 10] of the same molecule?
A: Its PCyR is 14%.

Q: What about the “response rate (cytogenetic)” value ([1]; FIG. 2B, CML-AP, 3 patients T315I−) of the same molecule?
A: Its value is 0.

Q: And the CCyR ([1]; FIG. 2B, CML-AP, 9 patients T315I+)?
A: Its CCyR is 33%.

Q: And the MCyR ([1]; FIG. 2B, CML-AP, total 12 patients)?
A: The MCyR was 25%.

Q: And the CCyR [1, 11]?
A: The CCyR was 57%.

Q: And the MCyR [1, 11]?
A: Its MCyR is 71%.

Q: What about the PCyR [1, 11] of the same molecule?
A: Its PCyR is 14%.

Q: And the CCyR [1, 12]?
A: The CCyR was 14%.

Q: What about the MCyR [1, 12] of the same molecule?
A: Its MCyR is 28%.

Q: And the PCyR [1, 12]?
A: Its PCyR is 14%.

Q: What about the CCyR [1, 13] of the same molecule?
A: The CCyR was 36%.

Q: What about the MCyR [1, 13] of the same molecule?
A: Its MCyR is 50%.

Q: What about the PCyR [1, 13] of the same molecule?
A: Its PCyR is 14%.

Q: And the CCyR [1, 14]?
A: Its CCyR is 13%.

Q: What about the MCyR [1, 14] of the same molecule?
A: Its MCyR is 50%.

Q: And the PCyR [1, 14]?
A: The PCyR was 38%.

Q: And the CCyR [1, 15]?
A: The CCyR was 60%.

Q: And the MCyR [1, 15]?
A: The MCyR was 60%.

Q: And the CCyR [1, 16]?
A: Its CCyR is 38%.

Q: And the MCyR [1, 16]?
A: Its MCyR is 54%.

Q: What about the PCyR [1, 16] of the same molecule?
A: The PCyR was 16%.

Q: And the CCyR [1, 17]?
A: The CCyR was 25%.

Q: And the MCyR [1, 17]?
A: Its MCyR is 50%.

Q: And the PCyR [1, 17]?
A: The PCyR was 25%.

Q: What about the CCyR [1, 18] of the same molecule?
A: The CCyR was 75%.

Q: What about the MCyR [1, 18] of the same molecule?
A: Its MCyR is 100%.

Q: What about the PCyR [1, 18] of the same molecule?
A: The PCyR was 25%.

Q: What about the CCyR [1, 19] of the same molecule?
A: The CCyR was 58%.

Q: What about the MCyR [1, 19] of the same molecule?
A: Its MCyR is 83%.

Q: What about the PCyR [1, 19] of the same molecule?
A: The PCyR was 25%.

Q: And the MMR ([1]; FIG. 4A, CML-CP, 24 patients T315I−)?
A: The MMR was 4%.

Q: What about the MMR ([1]; FIG. 4A, CML-CP, 43 patients T315I+) of the same molecule?
A: The MMR was 47%.

Q: And the MMR ([1]; FIG. 4A, CML-CP, total 67 patients)?
A: The MMR was 31%.

Q: What about the MMR ([1]; FIG. 4B, CML-AP, 3 patients T315I−) of the same molecule?
A: The MMR was 0%.

Q: And the MMR ([1]; FIG. 4B, CML-AP, 9 patients T315I+)?
A: The MMR was 11%.

Q: And the MMR ([1]; FIG. 4B, CML-AP, total 12 patients)?
A: The MMR was 8%.

Q: What about the “effect on subcutaneous tumors” value [2] of the same molecule?
A: The value was “complete regression”.

Q: What about the “reduction of CRKL phosphorylation” value [3] of the same molecule?
A: Its value is no less than 50%.

Q: And the “survival rate of isogenic leukemia mice” value ([4]; Ba/F3 BCR-ABL T315I)?
A: The value was “significantly improved the survival rate”.

Q: What about the “survival of tumor bearing mice (FIG. 8)” value ([4]; oral q2d or q3d, dose-dependent manner, imatinib qd as control) of the same molecule?
A: Its value is “significantly prolonged the survival”.

Q: What about the “time at which peak concentration was reached” value ([5]; Day 1, single oral administration, 1-60 mg) of the same molecule?
A: Its value is 1 to 12 h.

Q: And the “time at which peak concentration was observed” value ([5]; Day 27, QOD)?
A: The value was 1 to 12 h.

Q: What about the half-life ([5]; mean terminal T1/2, Day 1, 1-60 mg, watching time window 48 hrs) of the same molecule?
A: The half-life was 1050 to 2190 min.

Q: What about the half-life ([5]; mean terminal T1/2, Day 27, watching time window 48 hrs) of the same molecule?
A: The half-life was 1190 to 2550 min.

Q: What about the Tmax ([5]; Day 1, 1-60 mg) of the same molecule?
A: Its Tmax is 4 to 8 h.

Q: What about the Tmax ([5]; Day 27, QOD) of the same molecule?
A: Its Tmax is 4 to 6 h.
